PMC10005075, “Study on Absorption, Distribution and Excretion of a New Candidate Compound XYY-CP1106 against Alzheimer’s Disease in Rats by LC-MS/MS” (Molecules, 2023)
Entries after “also recorded” stand apart in the source; their conditions may differ. Like-named read-outs stand apart in the source and are kept apart here.

How the values were obtained:
[1] = Excretory study (urine and feces) after oral administration; type: in vivo; conditions: rats
Procedure: After the collected feces were dried at room temperature, a pestle and mortar were used to uniformly crush the feces collected at each time slot. Then, 0.2 g of ground feces were accurately weighed into a 5.0 mL centrifuge tube, 4 mL of methanol solution was added and then it was put into the ultrasonic instrument for ultrasonic extraction for 4 h. Then, 100 μL of feces samples were added into a 1.5 mL centrifuge tube. Next, it was treated the same as the plasma samples.
Urine samples were collected and processed directly. An aliquot of 100 µL of urine sample was taken and processed in the same manner as the plasma samples.
Ten rats were fed with freely available food and water and fasted with free access to water for 12 h before drug administration. They were given a single dose of XYY-CP1106 (15 mg/kg, 1.0 mg/mL) and then put into metabolic cages. Feces and urine were collected at 0–4, 4–8, 8–12, 12–24, 24–36, 36–48, 48–60, 60–72, 72–84 and 84–96 time slots, respectively. The feces collected at each time slot were air-dried to record their weight and stored in a refrigerator at −20 °C before use. The urine volume was recorded at each time slot and stored in a refrigerator at −20 °C before use.

[2] = design: method as in PMID 31325784; conditions: chelating ability for Fe^3+; cited from earlier work
MAO-B = test system: MAO-B; design: method as in PMID 31325784; conditions: cited from earlier work
[3] = Stability in plasma, tissues, feces and urine under storage conditions; design: species or system rat; conditions: automatic sampler 24 h; three freeze–thaw cycles −20 °C to room temperature; −20 °C for 30 days
Procedure: The stability of XYY-CP1106 standard in plasma, tissues, feces and urine biological samples under different storage conditions was analyzed, including the stability of samples stored at room temperature for 24 h in an automatic sampler, the freeze–thaw stability after three cycles (−20 °C to room temperature was defined as a cycle), and −20 °C for the last 30 days. When the deviation from the standard value was within 15% (low concentration was within 20%), the sample was considered stable. The concentration of standard substance in plasma was 10 and 160 ng/mL. The standard concentration in tissues, feces and urine was 10 and 800 ng/mL.

Solubility in water = type: physicochemical
Procedure: A certain amount of XYY-CP1106 was weighed and dissolved completely in methanol. β-cyclodextrin aqueous solution was added to make it 50% methanol and 30% β-cyclodextrin solution. Then, it was placed in ultrasound for 4 h under an ultrasonic bath after vortex. Next, it was freeze-dried for 2 days; then, it was redissolved in PBS solution to the final concentration of 1.0 mg/mL.

[4] = test system: scopolamine-induced AD mouse model; design: method as in PMID 31325784; conditions: scopolamine-induced AD mice, intraperitoneal injection 10 mg/kg; cited from earlier work
[5] = Tissue distribution study after oral administration; type: in vivo, Sprague-Dawley (SD) rats; conditions: rats, oral 15 mg/kg
Procedure: The tissue sample was weighed and cut into pieces. Normal saline was added to brain tissue at the ration of 1:1 (g: mL) and other tissues at the ration of 1:3 (g: mL). The tissue homogenate was symmetrically placed in a tissue homogenizer to obtain tissue homogenate.
Amount of 0.5 mL of tissue homogenate and 1.5 mL of acetonitrile were added into a 5 mL centrifuge tube for protein precipitation by vortex, and 1 mL of vortex solution was added into a 1.5 mL centrifuge tube and centrifuged at 13,000 revolutions at for 10 min 4 °C. Then, 900 μL supernatant and 100 μL IS working solution were added into a 1.5 mL centrifuge tube to vortex for 30 s. It was centrifuged twice under the same conditions; then, the supernatant (5 μL) was injected into the LC-MS/MS system.
Thirty SD rats were randomly divided into 5 groups (n = 6), fed with freely available food and water and fasted with free access to water for 12 h before drug administration. All rats were weighed and recorded. The 5 groups of rats were given a single oral dose (15 mg/kg) of XYY-CP1106 (1.0 mg/mL) and sacrificed with cervical dislocation at 0.25, 1, 2, 4 and 8 h, respectively. The heart, liver, spleen, lungs, kidneys and brain of the rats were quickly removed, and the blood was carefully rinsed off with physiological saline (0.9%). The normal saline on the surface of all tissue samples was dried with filter paper then stored in a refrigerator at −80 °C.

[6] = Plasma pharmacokinetic study after oral and tail vein administration; type: in vivo, Sprague-Dawley (SD) rats; design: clearance: unit not given here; conditions: rats; for AUC(0-t): read-out: AUC0–24
Procedure: Non-compartmental calculations were performed using the PK Solver plug-in (China Pharmaceutical University, Nanjing, China) to estimate the main pharmacokinetic parameters. All values were expressed as the mean ± standard deviation.
Amounts of 100 μL plasma, 100 μL IS working solution (1000 ng/mL), 100 μL aqueous solution containing 0.2% formic acid and 700 μL ice methanol for protein precipitation were successively added into the 1.5 mL centrifuge tube, and it was vortexed for 30 s. Then, it was centrifuged at 13,000 rpm for 10 min at 4 °C, and the upper clarifying solution was extracted and placed in a new 1.5 mL tube and was centrifuged again under the same conditions. Five microliters of the sample were measured and injected into the LC-MS/MS system for analysis.
For oral administration, six SD rats were fed with freely available food and water and fasted with free access to water for 12 h before drug administration. The rats in each group were weighed and recorded; then, the oral dose was 15 mg/kg. The average weight of rats was 200 ± 30 g. At 0.083, 0.25, 0.5, 0.75, 1, 2, 4, 6, 8, 12 and 24 h after oral administration, 0.3 mL of blood samples were collected from the suborbital vein and put into a 1.5 mL heparin sodium tube. The collected plasma sample was centrifuged at 4 °C for 10 min at 3500 revolutions, and 100 μL of supernatant was taken and stored at −20 °C for future use.
For tail vein injection, six SD rats were weighed and recorded; then, XYY-CP1106 (0.384 mg/mL, 1.92 mg/kg) filtered by a 0.22 µm filter membrane was administered via tail vein injection. An amount of 0.3 mL of blood samples were collected from the suborbital vein into heparin sodium tubes at 0.083, 0.25, 0.5, 0.75, 1, 2, 4, 6, 8, 12 and 24 h after caudal intravenous administration. The collected plasma samples were treated in the same way as oral administration.
The oral absolute bioavailability (F) in rats was calculated according to the following equation:F = (AUCoral(0–∞) × Doseiv)/(AUCiv(0–∞) × Doseoral) × 100%,(1)

[7] = Sprague-Dawley, rat, plasma, iv, I.V (tail vein) 1.92 mg/kg, n = 6
[8] = Sprague-Dawley, rat, plasma, po, P.O 15 mg/kg, n = 6

- time of maximum excretion rate in feces ([1]; 15 mg/kg by gavage): 8 to 12 h
- time of maximum excretion rate in urine ([1]; 15 mg/kg by gavage): 4 to 12 h
- excretion through urine, % of the dose ([1]; 15 mg/kg by gavage, within 24 h): 0.01 ± 0.00%
- excretion through feces, % of the dose ([1]; 15 mg/kg by gavage, within 72 h): 31.14 ± 0.05%
- average cumulative excretion through feces ([1]; oral 15 mg/kg, prototype drug): 0.94 ± 0.14 mg
- stability in biological matrices [3]: stable
- concentration at 2 h ([5]; Sprague-Dawley, rat, brain, 2 h after administration): 501 ± 260 ng/g
- Tmax ([6]; Sprague-Dawley, rat, plasma, 15 mg/kg, oral administration, read-out: time to maximum plasma concentration (converted)): 0.75 h
- AUC(0-inf) [6, 7]: 599 ± 31.8 ng·h/mL
- Cmax [6, 7]: 691 ± 120 ng/mL
- clearance [6, 7]: 0.0268
- half-life [6, 7]: 3.5 ± 2.24 h
- AUC(0-t) [6, 7]: 540 ± 43.7 ng·h/mL
- Tmax ([6]; Sprague-Dawley, rat, plasma, iv, I.V (tail vein) 1.92 mg/kg, n = 6, read-out: Tmax): 0.083 h
- half-life ([6]; Sprague-Dawley, rat, plasma, oral, P.O 15 mg/kg, n = 6): 8.26 to 10.1 h
- Tmax ([6]; Sprague-Dawley, rat, plasma, oral, P.O 15 mg/kg, n = 6, read-out: Tmax): 0.57 to 0.93 h
- bioavailability ([6]; Sprague-Dawley, rat, plasma, po, P.O 15 mg/kg vs I.V 1.92 mg/kg, from AUC0–∞, read-out: absolute oral bioavailability (F)): 10.7 ± 1.72%
- AUC(0-inf) [6, 8]: 503 ± 77.7 ng·h/mL
- Cmax [6, 8]: 153 ± 15.9 ng/mL
- half-life [6, 8]: 9.16 ± 0.9 h
- AUC(0-t) [6, 8]: 428 ± 66.1 ng·h/mL
- V ([6]; I.V (tail vein) 1.92 mg/kg, n = 6): 0.00403 ± 0.0018 L/kg
- V ([6]; P.O 15 mg/kg, n = 6): 0.4017 ± 0.06959 L/kg
SMILES: Cc1c(O)c(=O)ccn1Cc1cc2ccc(OCc3cccc(F)c3)cc2oc1=O [XYY-CP1106]
- pFe^3+ [2]: 18.04
- IC50 (MAO-B): 14.7 nM
- water solubility (Solubility in water): low water solubility; also recorded: almost insoluble in water
- effect on behavioral and cognitive impairment (water maze) [4]: could significantly alleviate the behavioral and cognitive impairment of mice
- blood–brain barrier penetration ([5]; detected in brain tissue, 15 mg/kg): could pass through the blood–brain barrier; also recorded: could penetrate the blood–brain barrier; also recorded: penetrating the BBB
- main tissues of distribution ([5]; heart, liver, spleen, lung, kidney, brain, 0.25-8 h): mainly distributed in the liver and kidneys
